Test results: US8986662B2, “Use of silane and siloxane bis(biphenyl) triazine derivatives as UV absorbers” (BASF SE, priority 2010, dated 2015)

What was measured:
Type in all cases: physicochemical
[1] = UV shielding properties: UV spectra in ethanol
Source text: The UV shielding properties of the bisbiphenyl triazine derivatives were investigated by measuring their UV spectra in ethanol. In the following table the investigated absorption maxima (λmax) together with the corresponding A^1%1cm values are listed.

[2] = Measurement of photostability: irradiation of highly diluted ethanol solution, analysis by UV-spectroscopy; conditions: first order kinetic model; diluted solution in ethanol; half-life under COLIPA standard sun irradiation
Procedure: The method used for assessment of photostability is based on the irradiation of a highly diluted solution of the UV-filter. The analysis after certain doses of irradiation was performed by UV-spectroscopy. The concentration of the UV-absorber in ethanol is adjusted to values between […], such that the absorbance of the solution in cuvette of 1 cm optical pathlength is equal or smaller than 0.2. The mutual protection of filter molecules can be excluded under such conditions.
Prior to irradiation of a sample the UVB-intensity at the sample position is measured with a UV-radiometer (RM-12, Dr. Grobel Electronic GmbH). […] Therefore the relationship of the reading of the RM-12 radiometer and the corresponding spectral output of the lamp is known, and one is able to determine the wavelength-resolved intensities by measuring the UVB-intensity. […]
For sample irradiation the highest possible intensity was used (4.5 mW/cm^2 UVB-intensity measured with the Macam 103 radiometer). […] After certain intervals of irradiation, the samples were analysed in a UV-spectrometer (Perkin Elmer, Lambda 16).
From the absorbance values at each dose of irradiation the concentration may be calculated using Lambert-Beer's law. […]

[3] = Measurement of solubility in Capric/Caprylic Triglyceride; conditions: solvent Capric/Caprylic Triglyceride
[4] = UV spectrum in tetrahydrofurane (synthesis examples); conditions: for ε: at λmax

SMILES	Absorption maximum λmax [1]	Half time [2] [h]	Solubility in Capric/Caprylic Triglyceride [3] [w-%]	λmax [4] [nm]	ε [4] [M⁻¹ cm⁻¹]
CC[Si](CC)(CC)CCCOc1ccc(-c2nc(-c3ccc(-c4ccccc4)cc3)nc(-c3ccc(-c4ccccc4)cc3)n2)c(O)c1 [S-2]	319	412.1	22.8	319	76300
CCO[Si](CCCOc1ccc(-c2nc(-c3ccc(-c4ccccc4)cc3)nc(-c3ccc(-c4ccccc4)cc3)n2)c(O)c1)(OCC)OCC [S-8]	320	342.2		320	75800
